Test results published in patent EP0745595A1, “3-(3-Aryloxyphenyl)-1-(substituted methyl)-s-triazine-2,4,6-oxo or thiotrione herbicidal agents” (American Cyanamid Company, priority 1995, dated 1996).

Experiments:
Type in all cases: in vivo
[1] = test system: ABUTILON THEOPHRASTI, MEDIC.; assay: Postemergence herbicidal evaluation, ABUTH (Velvetleaf); settings: rated four to five weeks after treatment, averaged
Outline: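 This postemergence herbicide test used two-week-old velvetleaf seedlings grown in jiffy flats. Each compound was sprayed at 40 psi as a dispersion in 50/50 acetone/water with 0.5% TWEEN®20 surfactant. Plants then received routine greenhouse care. After four to five weeks, injury was scored visually on a 0-9 scale against a control, and replicate tests were averaged.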

CHENOPODIUM ALBUM, L. [2] = assay: Postemergence herbicidal evaluation, CHEAL (Lambsquarters, Common); settings: rated four to five weeks after treatment, averaged
Outline: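 Postemergence herbicidal activity on Chenopodium album was tested by spraying two-week-old seedlings grown in jiffy flats with compound in acetone/water (50/50) plus 0.5% TWEEN®20, using a 40 psi nozzle. Four to five weeks after treatment, stand, vigor, malformation, size, chlorosis and overall appearance were scored 0-9 relative to controls, with repeat tests averaged.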

[3] = test system: AMBROSIA ARTEMISIIFOLIA, L.; assay: Preemergence herbicidal evaluation, AMBEL (Ragweed, Common); settings: four to five weeks after treatment
Excerpt: (§1) Results of herbicide evaluation are expressed on a rating scale (0-9). The scale is based upon a visual observation of plant stand, vigor, malformation, size, chlorosis and overall plant appearance as compared with a control.
(§2) The preemergence herbicidal activity of the test compounds of the present invention is exemplified by the following tests in which the seeds of a variety of monocotyledonous and dicotyledonous plants are separately mixed with potting soil and planted on top of approximately one inch of soil in separate pint cups. […] The treated cups are then placed on greenhouse benches, watered and cared for in accordance with conventional greenhouse procedures. From four to five weeks after treatment, the tests are terminated and each cup is examined and rated according to the rating system provided in Example 40.
(§3) The compounds evaluated are reported by compound number given in Example 40.

CHENOPODIUM ALBUM, L. [4] = assay: Preemergence herbicidal evaluation, CHEAL (Lambsquarters, Common); settings: for CHEAL rating: four to five weeks after treatment; for CHEAL herbicidal rating: rated four to five weeks after treatment
Outline: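 Seeds sown in potting soil cups, then sprayed preemergence with aqueous acetone compound solution at about 0.125 to 0.50 kg per hectare. Greenhouse-grown, rated 4–5 weeks after treatment on a 0–9 visual scale against control.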

[5] = test system: ECHINOCHLOA ORYZOIDES (ARD.)FRITSCH; assay: Preemergence weed control under flooded paddy conditions, ECHORC (Watergrass (Calif.)); settings: for ECHORC herbicidal rating: preemergence weeds, rated three to four weeks after treatment; for Herbicidal effect rating, ECHORC: preemergence, 3-4 weeks after treatment
Outline: (§4)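 In undrained pots of silt loam flooded to 1.5-3 cm, compounds are pipetted into the water before emergence at the equivalent of about 0.5, 0.25, 0.125 and 0.063 kg/ha. Plants are scored 0-9 for stand, vigor, malformation, size and chlorosis at test end (3-4 weeks).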

CYPERUS IRIA = assay: Preemergence weed control under flooded paddy conditions, CYPIR (Rice Flatsedge); settings: preemergence weeds, rated three to four weeks after treatment
Outline: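 This preemergence test mimicked flooded paddy conditions: rice flatsedge propagules were sown in the upper 0.5 cm of silt loam in undrained 32 oz. containers (10.5 cm diameter), with water held 1.5 to 3 cm over the soil. After normal greenhouse care, plants were scored 0-9 for stand, vigor, malformation, size, chlorosis and appearance relative to controls.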

[…], PRESL. = Preemergence weed control under flooded paddy conditions, MOOVA (Monochoria); settings: for MOOVA herbicidal rating: preemergence weeds, rated three to four weeks after treatment; for Herbicidal effect rating, MOOVA: preemergence, 3-4 weeks after treatment
Outline: as §4

[6] = test system: ORYZA SATIVA, L. TEBONNET; assay: Rice tolerance to post-transplant applications under flooded paddy conditions, ORYSAT (Rice, Tebonnet); settings: post-transplant rice; for ORYSAT herbicidal rating (rice tolerance): rated three to four weeks after treatment; for Herbicidal effect rating, ORYSAT: 3-4 weeks after treatment;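 for ORYSAT herbicidal rating (rice tolerance): applied to flooded soil surface three days after transplanting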
Outline: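 Greenhouse pots of silt loam, each with two transplanted ten-day-old seedlings, are held under 1.5 to 3 cm of standing water. Three days later the compound is applied to the flooded surface at about 0.5, 0.25, 0.125 or 0.063 kg/ha. Damage is scored visually 0-9 after 3-4 weeks.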

[7] = test system: SETARIA VIRIDIS, (L) BEAU; assay: Postemergence herbicidal evaluation, SETVI (Foxtail, Green); design: key to SETVI rating / Herbicidal effect rating, SETVI / SETVI: 0-9 visual rating scale vs untreated control
Outline: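 Each value is a 0–9 visual rating of plant appearance compared with control, recorded 4–5 weeks after a 0.125–0.500 kg/ha spray, with multiple tests averaged.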

CASSIA OBTUSIFOLIA, L. = assay: Preemergence herbicidal evaluation, CASOB (Sicklepod); settings: rated four to five weeks after treatment
Excerpt: as §1, §2, §3

IPOMOEA SPP. = assay: Preemergence herbicidal evaluation, IPOSS (Morningglory spp.); settings: rated four to five weeks after treatment
Excerpt: as §1, §2, §3

[8] = test system: ECHINOCHLOA CRUS-GALLI, (L) BEAU; assay: Preemergence herbicidal evaluation, ECHCG (Barnyardgrass); settings: rated four to five weeks after treatment
Excerpt: as §1, §2, §3

[9] = test system: GLYCINE MAX(L) MERR. CV. WILLIAMS; assay: Preemergence herbicidal evaluation, GLXMAW (Soybean, Williams); settings: rated four to five weeks after treatment
Excerpt: as §1, §2, §3

ZEA MAYS L. = assay: Preemergence herbicidal evaluation, ZEAMX (Corn, Field); settings: rated four to five weeks after treatment
Excerpt: as §1, §2, §3

[10] = test system: CYPERUS SEROTINUS, ROTTB.; assay: Preemergence weed control under flooded paddy conditions, CYPSE (Flatsedge); settings: preemergence, 3-4 weeks after treatment
Outline: as §4

SAGITTARIA PYGMAEA, L. = assay: Preemergence weed control under flooded paddy conditions, SAGPY (Arrowhead (Pygmaea)); settings: preemergence, 3-4 weeks after treatment
Outline: as §4

[11] = test system: TRITICUM AESTIVUM, CV. APOLLO; assay: Preemergence herbicidal evaluation, TRZAWO (Wheat, Winter, CV. APOLLO); settings: rated four to five weeks after treatment
Excerpt: as §1, §2, §3

COC(=O)C(C)n1c(=O)n(C)c(=O)n(-c2cc(Oc3c(F)cc(C(F)(F)F)cc3Cl)ccc2Br)c1=O (stereo not drawn) [Compound 1, Methyl 3-{2-bromo-5-[(2-chloro-α,α,α,6-tetrafluoro-p-tolyl)oxy]phenyl}tetrahydro-α,5-dimethyl-2,4,6-trioxo-s-triazine-1(2H)-acetate]
3.0: ORYSAT herbicidal rating (rice tolerance) ([6]; Rate 0.500 kg/ha)
0.0: AMBEL rating ([3]; Rate 0.125 kg/ha) | AMBEL rating ([3]; Rate 0.250 kg/ha) | AMBEL rating ([3]; Rate 0.500 kg/ha)
9.0: ABUTH, herbicide rating (0-9) ([1]; Rate 0.125 kg/ha) | ABUTH, herbicide rating (0-9) ([1]; Rate 0.250 kg/ha) | ABUTH, herbicide rating (0-9) ([1]; Rate 0.500 kg/ha) | CHEAL, herbicide rating (0-9) (CHENOPODIUM ALBUM, L. [2]; Rate 0.125 kg/ha) | CHEAL, herbicide rating (0-9) (CHENOPODIUM ALBUM, L. [2]; Rate 0.250 kg/ha) | CHEAL, herbicide rating (0-9) (CHENOPODIUM ALBUM, L. [2]; Rate 0.500 kg/ha) | CHEAL rating (CHENOPODIUM ALBUM, L. [4]; Rate 0.125 kg/ha) | CHEAL rating (CHENOPODIUM ALBUM, L. [4]; Rate 0.250 kg/ha) | CHEAL rating (CHENOPODIUM ALBUM, L. [4]; Rate 0.500 kg/ha) | ECHORC herbicidal rating ([5]; Rate 0.125 kg/ha) | ECHORC herbicidal rating ([5]; Rate 0.250 kg/ha) | ECHORC herbicidal rating ([5]; Rate 0.500 kg/ha) | CYPIR herbicidal rating (CYPERUS IRIA; Rate 0.125 kg/ha) | CYPIR herbicidal rating (CYPERUS IRIA; Rate 0.250 kg/ha) | CYPIR herbicidal rating (CYPERUS IRIA; Rate 0.500 kg/ha) | MOOVA herbicidal rating ([…], PRESL.; Rate 0.125 kg/ha) | MOOVA herbicidal rating ([…], PRESL.; Rate 0.250 kg/ha) | MOOVA herbicidal rating ([…], PRESL.; Rate 0.500 kg/ha)
1.0: ORYSAT herbicidal rating (rice tolerance) ([6]; Rate 0.125 kg/ha)
2.0: ORYSAT herbicidal rating (rice tolerance) ([6]; Rate 0.250 kg/ha)

Cn1c(=O)n(CC(N)=O)c(=O)n(-c2cc(Oc3ncc(C(F)(F)F)cc3Cl)ccc2Br)c1=O [Compound 42]
2.0: Herbicidal effect rating, ORYSAT ([6]; 0.500 kg/ha)
1.0: SETVI rating ([7]; Rate 0.125 kg/ha) | SETVI rating ([7]; Rate 0.250 kg/ha) | SETVI rating ([7]; Rate 0.500 kg/ha) | Herbicidal effect rating, ORYSAT ([6]; 0.250 kg/ha)
0.0: CASOB herbicidal rating (CASSIA OBTUSIFOLIA, L.; Rate 0.125 kg/ha) | CASOB herbicidal rating (CASSIA OBTUSIFOLIA, L.; Rate 0.250 kg/ha) | CASOB herbicidal rating (CASSIA OBTUSIFOLIA, L.; Rate 0.500 kg/ha) | IPOSS herbicidal rating (IPOMOEA SPP.; Rate 0.125 kg/ha) | IPOSS herbicidal rating (IPOMOEA SPP.; Rate 0.250 kg/ha) | IPOSS herbicidal rating (IPOMOEA SPP.; Rate 0.500 kg/ha) | ECHCG herbicidal rating ([8]; Rate 0.125 kg/ha) | ECHCG herbicidal rating ([8]; Rate 0.250 kg/ha) | ECHCG herbicidal rating ([8]; Rate 0.500 kg/ha) | GLXMAW herbicidal rating ([9]; Rate 0.125 kg/ha) | GLXMAW herbicidal rating ([9]; Rate 0.250 kg/ha) | GLXMAW herbicidal rating ([9]; Rate 0.500 kg/ha) | ZEAMX herbicidal rating (ZEA MAYS L.; Rate 0.125 kg/ha) | ZEAMX herbicidal rating (ZEA MAYS L.; Rate 0.250 kg/ha) | ZEAMX herbicidal rating (ZEA MAYS L.; Rate 0.500 kg/ha) | Herbicidal effect rating, ECHORC ([5]; 0.250 kg/ha) | Herbicidal effect rating, ECHORC ([5]; 0.500 kg/ha) | Herbicidal effect rating, CYPSE ([10]; 0.250 kg/ha) | Herbicidal effect rating, CYPSE ([10]; 0.500 kg/ha) | Herbicidal effect rating, MOOVA ([…], PRESL.; 0.250 kg/ha) | Herbicidal effect rating, MOOVA ([…], PRESL.; 0.500 kg/ha) | Herbicidal effect rating, SAGPY (SAGITTARIA PYGMAEA, L.; 0.250 kg/ha) | Herbicidal effect rating, SAGPY (SAGITTARIA PYGMAEA, L.; 0.500 kg/ha)
9.0: CHEAL herbicidal rating (CHENOPODIUM ALBUM, L. [4]; Rate 0.125 kg/ha) | CHEAL herbicidal rating (CHENOPODIUM ALBUM, L. [4]; Rate 0.250 kg/ha) | CHEAL herbicidal rating (CHENOPODIUM ALBUM, L. [4]; Rate 0.500 kg/ha)

COC(=O)Cn1c(=O)n(C)c(=O)n(-c2cc(Oc3ccc(Cl)cc3Cl)ccc2Br)c1=O [Compound 43, Methyl 3-[2-bromo-5-(2,4-dichlorophenoxy)-phenyl]tetrahydro-5-methyl-2,4,6-trioxo-s-triazine-1(2H)-acetate]
0.5: TRZAWO herbicidal rating ([11]; Rate 0.125 kg/ha) | TRZAWO herbicidal rating ([11]; Rate 0.250 kg/ha) | TRZAWO herbicidal rating ([11]; Rate 0.500 kg/ha)
9.0: CHEAL herbicidal rating (CHENOPODIUM ALBUM, L. [4]; Rate 0.125 kg/ha) | CHEAL herbicidal rating (CHENOPODIUM ALBUM, L. [4]; Rate 0.250 kg/ha) | CHEAL herbicidal rating (CHENOPODIUM ALBUM, L. [4]; Rate 0.500 kg/ha) | Herbicidal effect rating, ECHORC ([5]; 0.063 kg/ha) | Herbicidal effect rating, ECHORC ([5]; 0.125 kg/ha) | Herbicidal effect rating, ECHORC ([5]; 0.250 kg/ha) | Herbicidal effect rating, ECHORC ([5]; 0.500 kg/ha)
4.0: Herbicidal effect rating, ORYSAT ([6]; 0.250 kg/ha) | Herbicidal effect rating, ORYSAT ([6]; 0.500 kg/ha)
2.0: Herbicidal effect rating, ORYSAT ([6]; 0.063 kg/ha)
3.0: Herbicidal effect rating, ORYSAT ([6]; 0.125 kg/ha)
